# In patent publication US20230374462A1, “METHOD FOR PRODUCING MYOCARDIAL STEM/PROGENITOR CELL AND METHOD FOR SUPPRESSING MYOCARDIAL FIBROSIS” (priority 2020, published 2023):
# Tests used:
# [1] = system: HCM cells; test: Western blot of endothelial cell marker (CD31) and muscle cell marker (Troponin T); format: cell-based, human; settings: FIG. 3B
# Text: (§1) FIG. 3 A: Graphs showing mRNA expression of the myocardial progenitor cell markers (GATA4 and VCAM-1), the maturation marker (MYL2), and senescence markers (CDKN1A and CDKN2A) for cardiomyocytes, in the cardiomyocytes treated with the TGFβ receptor inhibitor (A) or the ROCK inhibitor (Y). In each graph, the vertical axis represents the expression amount (Relative mRNA expression) of each mRNA when the expression amount of the cells before culture is 1, and the numerical values on the horizontal axis represent culture periods (day). B: Photographs showing the results of confirming, by Western blot, loss of the expression of an endothelial cell marker (CD31), and expression of a muscle cell marker (Troponin T) and Actin, in primary human cardiomyocytes (HCM) or primary human coronary artery smooth muscle cells (PC-100-021) treated with the TGFβ receptor inhibitor (A) or the ROCK inhibitor (Y). NT indicates an agent-untreated control, and HUVEC indicates a result of using human umbilical vein endothelial cells (CD31-positive as the endothelial cell marker).
# [2] = system: PC-100-021 cells; test: as above; format: cell-based, human; settings: FIG. 3B
# Text: as §1
# [3] = system: HCM cells; test: Quantitative RT-PCR of progenitor, maturation and senescence markers; format: cell-based, human; settings: for number of cell death due to the treatment: concluded from senescence markers
# Method: (§2) The subcultured human cardiomyocytes were seeded at 0.5×10^2 cells/cm^2 on a 35 mm plate (IWAKI) containing: 3 mL of a Vascular Smooth Muscle Cell growth medium containing 3-(6-methyl-2-pyridinyl)-n-phenyl-4-(4-quinolinyl)-1H-pyrazole-1-carbothioamide (A-83-01: A) (final concentration: 1 AM) as a low molecular weight compound TGFβ receptor inhibitor or (1R,4r)-4-((R)-1-aminoethyl)-N-(pyridin-4-yl)cyclohexanecarboxamide (Y-27632: Y) (final concentration: 10 AM) as a ROCK inhibitor, both of the compounds A-83-01 and Y-27632, or free of them: or a Myocyte basal medium. On Day 3, the Vascular Smooth Muscle Cell growth medium containing each low molecular weight compound or the Myocyte basal medium was replaced. Thereafter, the medium was replaced in the same manner every three days.
# (§3) Total RNA was isolated from each cardiomyocyte 1 month and 2 months after culture in the presence of the test low molecular weight compound using miRNeasy Mini Kit (QIAGEN). Reverse transcription reactions were performed using High-Capacity cDNA Reverse Transcription Kit Lifetechnologies according to manufacturer's guidelines. PCR was performed using the obtained cDNA as a template and a Taqman Probe (ThermoFisher). An expression level of a target gene was standardized with β-actin as an endogenous control.
# [4] = system: PC-100-021 cells; test: as above; format: cell-based, human; settings: for number of cell death due to the treatment: concluded from senescence markers
# Method: as §2, §3
# [5] = system: primary human cardiomyocytes (HCM); test: Long-term culture with low-speed imaging of cardiomyocytes in presence of low molecular weight compound; format: cell-based; settings: for long-term culture (proliferation): HCM, FIG. 1B; for cell morphology of cardiomyocytes: long-term culture, FIG. 1A
# Method: as §2
# After the medium replacement, low-speed imaging was performed using a BZ9000 all-in-one fluorescence microscope (KEYENCE). In addition, the individual cells were tracked throughout the imaging period (110 days), and the final number of cells derived from each cell was measured.
# [6] = system: primary human coronary artery smooth muscle cells (PC-100-021); test: Long-term culture with low-speed imaging in presence of low molecular weight compound; format: cell-based; settings: FIG. 1C
# [7] = 1 and 2 months culture, vs agent untreated group, FIG. 2
# [8] = culture periods in days, FIG. 3A
SMILES,expression of endothelial cell marker (CD31) [1],expression of muscle cell marker [1],expression of endothelial cell marker (CD31) [2],expression of muscle cell marker [2],"decrease in progenitor cell markers (GATA4 and VCAM-1) mRNA during culture [3, 7]","increase in maturation marker (MYL2) mRNA during culture [3, 7]",expression of senescence markers (CDKN1A and CDKN2A) mRNA ([3]; FIG. 3A),number of cell death due to the treatment [3],"decrease in progenitor cell markers (GATA4 and VCAM-1) mRNA during culture [3, 8]","increase in maturation marker (MYL2) mRNA during culture [3, 8]","decrease in progenitor cell markers (GATA4 and VCAM-1) mRNA during culture [4, 7]","increase in maturation marker (MYL2) mRNA during culture [4, 7]",expression of senescence markers (CDKN1A and CDKN2A) mRNA ([4]; FIG. 3A),number of cell death due to the treatment [4],"decrease in progenitor cell markers (GATA4 and VCAM-1) mRNA during culture [4, 8]","increase in maturation marker (MYL2) mRNA during culture [4, 8]",long-term culture (proliferation) [5],cell morphology of cardiomyocytes [5],long-term culture (proliferation) [6]
"C[C@@H](N)[C@H]1CC[C@H](C(=O)Nc2ccncc2)CC1 [Y-27632, (1R,4r)-4-((R)-1-aminoethyl)-N-(pyridin-4-yl)cyclohexanecarboxamide]",not expressed,expressed,not expressed,expressed,suppressed,suppressed,hardly expressed,small,suppressed,suppressed,suppressed,suppressed,hardly expressed,small,suppressed,suppressed,long-term culture was induced,maintained the original cell morphology,
"Cc1cccc(-c2nn(C(=S)Nc3ccccc3)cc2-c2ccnc3ccccc23)n1 [A-83-01, 3-(6-methyl-2-pyridinyl)-n-phenyl-4-(4-quinolinyl)-1H-pyrazole-1-carbothioamide]",not expressed,expressed,not expressed,expressed,promoted,promoted,hardly expressed,small,,promote,promoted,promoted,hardly expressed,small,,promote,long-term culture was induced,maintained the original cell morphology,long-term culture was induced
